# Starred links: 1 amine or outer side, 2 acyl side, 3 side chain; linkers in the order of their positions; H or OH if unused. Positions of bridges follow the written chain, without caps; N, C: chain ends. Non-standard residues stand in square brackets, D forms with d. Residues, ends and D or L forms follow the SMILES beside them. *: point of attachment. hTyr(3S-OH,4S-OH,3'-OSO3H) = N[C@H](C(=O)O)[C@H](O)[C@@H](O)c1ccc(O)c(OS(=O)(=O)O)c1; Orn(4R-OH,5R-OH) = O=C([C@H](C[C@@H](O)[C@@H](O)N[*:3])N[*:1])[*:2]; Pro(3S-OH,4S-Me) = C[C@H]1CN[C@H](C(=O)O)[C@H]1O; X1 = CCCCCOc1ccc(-c2cc(-c3ccc(C(=O)*)cc3)no2)cc1; Gln(3R-OH) = NC(=O)C[C@@H](O)[C@H](N)C(=O)O; Hyp = O=C(O)[C@@H]1C[C@@H](O)CN1
# Legend:
# [1] = Systemic clearance in analbuminemic Nagase rat plasma at 1 mg/kg, iv administered as single dose by high-performance liquid chromatography; format: ADME, organism-based; set-up: dose 1 mg/kg, route intravenous
# [2] = Volume of distribution at steady state in analbuminemic Nagase rat plasma at 1 mg/kg, iv administered as single dose by high-performance liquid chromatography; format: ADME, organism-based; set-up: dose 1 mg/kg, route intravenous; details: read-out: Vdss
# [3] = Systemic clearance in Sprague-Dawley rat plasma at 1 mg/kg, iv administered as single dose by high-performance liquid chromatography; format: ADME, organism-based; set-up: dose 1 mg/kg, route intravenous
# [4] = Volume of distribution at steady state in Sprague-Dawley rat plasma at 1 mg/kg, iv administered as single dose by high-performance liquid chromatography; format: ADME, organism-based; set-up: dose 1 mg/kg, route intravenous; details: read-out: Vdss
# Rattus norvegicus [5] = assay: Plasma protein binding in analbuminemic Nagase rat at 1 mg/kg, iv administered as single dose by high-performance liquid chromatography; format: ADME, organism-based; set-up: dose 1 mg/kg, route intravenous; details: in vivo
# Rattus norvegicus [6] = assay: Plasma protein binding in Sprague-Dawley rat at 1 mg/kg, iv administered as single dose by high-performance liquid chromatography; format: ADME, organism-based; set-up: dose 1 mg/kg, route intravenous; details: in vivo
# Albumin = Albumin (Homo sapiens, UniProt P02768); assay: Binding affinity to human serum albumin in cell-free system
# Rattus norvegicus [7] = assay: Binding affinity to gamma globulin in rat plasma at 1 mg/kg, iv administered as single dose; format: functional
# Rattus norvegicus [8] = assay: Binding affinity to HDL in rat plasma at 1 mg/kg, iv administered as single dose; format: ADME, organism-based; set-up: dose 1 mg/kg, route intravenous; details: in vivo
# Sequence of Albumin (P02768 whole entry): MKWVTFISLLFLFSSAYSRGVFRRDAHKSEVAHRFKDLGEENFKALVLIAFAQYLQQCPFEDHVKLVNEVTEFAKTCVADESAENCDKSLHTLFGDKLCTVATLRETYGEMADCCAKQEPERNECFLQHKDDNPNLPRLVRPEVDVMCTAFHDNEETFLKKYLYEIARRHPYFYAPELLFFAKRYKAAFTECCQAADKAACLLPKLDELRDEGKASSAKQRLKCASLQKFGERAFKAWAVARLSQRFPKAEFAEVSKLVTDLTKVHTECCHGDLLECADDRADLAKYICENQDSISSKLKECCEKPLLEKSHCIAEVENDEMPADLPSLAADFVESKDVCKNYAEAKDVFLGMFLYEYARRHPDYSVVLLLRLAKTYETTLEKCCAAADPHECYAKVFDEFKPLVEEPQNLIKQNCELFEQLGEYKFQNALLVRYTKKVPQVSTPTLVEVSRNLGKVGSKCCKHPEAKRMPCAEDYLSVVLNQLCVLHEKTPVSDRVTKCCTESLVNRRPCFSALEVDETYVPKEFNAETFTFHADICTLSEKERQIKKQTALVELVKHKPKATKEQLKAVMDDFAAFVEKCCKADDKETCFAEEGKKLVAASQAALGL
structure (smiles),measurement,setting,value
"CCCCCOc1ccc(-c2cc(-c3ccc(C(=O)N[C@H]4C[C@@H](O)[C@@H](O)NC(=O)[C@@H]5[C@@H](O)[C@@H](C)CN5C(=O)[C@H]([C@H](O)CC(N)=O)NC(=O)[C@H]([C@H](O)[C@@H](O)c5ccc(O)c(OS(=O)(=O)O)c5)NC(=O)[C@@H]5C[C@@H](O)CN5C(=O)[C@H]([C@@H](C)O)NC4=O)cc3)no2)cc1 [MICAFUNGIN] (X1-[Orn(4R-OH,5R-OH)]T[Hyp][hTyr(3S-OH,4S-OH,3'-OSO3H)][Gln(3R-OH)][Pro(3S-OH,4S-Me)]; lactam 1-C)",clearance,[1],1.2 mL/min/kg
same,Vd,[2],0.52 L/kg
same,clearance,[3],1.15 mL/min/kg
same,Vd,[4],0.54 L/kg
same,Activity,Rattus norvegicus [5],99.8%
same,Activity,Rattus norvegicus [6],99.7%
same,Activity,Albumin,99.7%
same,Activity,Rattus norvegicus [7],35.1%
same,Activity,Rattus norvegicus [8],97.4%

# Reference: ChEMBL document CHEMBL1275491, “Role of plasma proteins in pharmacokinetics of micafungin, an antifungal antibiotic, in analbuminemic rats” (Antimicrob Agents Chemother, 2008)
